Results as given in patent US7135326B2, “UDP-glucosyltransferases” (E. I. du Pont de Nemours and Company, priority 2002, dated 2006).

Experiments:
[1] = molecular target: T1, Grape (Vitis sp.) UDP-glucosyltransferase (Grape GT), wild type, SEQ ID NO:18 (Vitis vinifera, UniProt F6H660); assay: Substrate inhibition of Grape GT in cell-free extract (initial rates, Table 2); type: biochemical; details: 10 mM pHBA; 25° C., pH 7.3, 10 mM UDP-glucose; data of Table 2
T1 construct: cell-free extract and purified recombinant protein
T1 sequence (F6H660 1-478): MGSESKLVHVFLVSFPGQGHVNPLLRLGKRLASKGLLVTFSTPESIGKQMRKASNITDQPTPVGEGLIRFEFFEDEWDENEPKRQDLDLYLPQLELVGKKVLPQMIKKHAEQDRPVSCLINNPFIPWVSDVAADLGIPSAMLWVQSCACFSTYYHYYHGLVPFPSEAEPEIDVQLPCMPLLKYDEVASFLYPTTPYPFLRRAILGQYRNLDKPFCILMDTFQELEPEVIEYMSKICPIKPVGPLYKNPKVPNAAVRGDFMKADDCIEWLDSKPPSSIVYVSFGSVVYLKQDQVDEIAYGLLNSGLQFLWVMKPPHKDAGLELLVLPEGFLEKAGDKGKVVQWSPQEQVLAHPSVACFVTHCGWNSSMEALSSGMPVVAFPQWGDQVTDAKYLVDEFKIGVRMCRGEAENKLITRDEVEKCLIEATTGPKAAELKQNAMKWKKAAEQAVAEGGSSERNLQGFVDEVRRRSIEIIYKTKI
Procedure: For protein production, the resulting recombinant strains were grown at 22° C. in 50 mL of LB media that contained kanamycin (50 μg/mL). At an A600 nm of ˜0.6, isopropyl-1-thio-β-D-galactopyranoside was added to a final concentration of 0.2 mM. Following a 22-h induction period at the same temperature, the cells were harvested by centrifugation and stored at −80° C. for subsequent manipulation as described below.
The frozen cell pellets were resuspended in 1.0 mL of a solution containing 100 mM Tris-HCl (pH 7.7), 5 mM MgSO4, 1 mM dithiothreitol, 0.03 mg/mL DNAse I, 0.5 mM phenylmethanesulfonyl fluoride, and passed once through a French pressure cell at 20,000 psi. […] Protein concentrations were determined by the Bradford Method using bovine serum albumin as a standard.
The second assay is based on the increase in absorbance at 368 nm that accompanies the formation of the glucose ester of sinapic acid. The experimental conditions were the same as those described above, but the test substrate was sinapic acid and product formation was calculated using an extinction coefficient of 5,570 M^−1 that was obtained with the authentic chemically synthesized compound under identical conditions. […]

[2] = test system: Arabidopsis thaliana UDP-glucosyltransferase 75B1; details: 20° C.; Lim et al. 2002; cited from earlier work
[3] = molecular target: T1, Grape (Vitis sp.) UDP-glucosyltransferase (Grape GT), wild type, SEQ ID NO:18; assay: Kinetic analysis of purified recombinant Grape GT (spectrophotometric assay at 304 nm); type: biochemical; details: saturated with pHBA; 25° C., pH 7.3, 10 mM UDP-glucose
Procedure: Turnover number for the present enzyme is determined according to principles well known in the art. […] Using the protein concentration as determined in μmols in the assay, one can determine how many μmols product are formed using 1.0 μmols enzyme in a fixed time period such as a second (i.e., how many times catalytic turnover occurred).
Initial rates of product formation were measured at 25° C. over a wide range of substrate concentrations using the spectrophotometric assay (see Example 4).

[4] = test system: Arabidopsis thaliana glucosyltransferase UGT84A1 (84A1, GT 3, SEQ ID NO:8); details: 20° C.; Lim et al. 2002; cited from earlier work

O=C(O)c1ccc(O)cc1 [pHBA, p-Hydroxybenzoic acid]
substrate inhibition (in words) [1]: little, if any, substrate inhibition | turnover number (formation of the pHBA ester glucoside) [2]: 0.73 sec^−1 | turnover number (kcat) [3]: ~10.9 s⁻¹ | turnover number with pHBA [4]: ~0.21 sec^−1
